According to ChEMBL document CHEMBL1201862, “PubChem BioAssay data set” (2004):
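Method: 48-hour compound exposure of cells in 96-well plates, five concentrations, linear interpolation of endpoints. GI50 = concentration required for 50% inhibition of growth.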 Activity calls are given as the source filed them. Rule as the data show it: active = GI50 up to about 1.1 µM and inactive = higher.

Legend:
Assay in all cases: NCI-60 cell line screen, 48 h
[1] = system: SK-MEL-5
[2] = system: OVCAR-3
[3] = system: M14
[4] = system: SK-OV-3
[5] = system: DU-145
[6] = system: SNB-75
[7] = system: HT-29
[8] = system: UACC-62
[9] = system: HCT-15
[10] = system: SK-MEL-28
[11] = system: UACC-257
[12] = system: UO-31
[13] = system: NCI/ADR-RES
[14] = system: SF-295
[15] = system: MDA-MB-435
[16] = system: 786-0
[17] = system: SN12C
[18] = system: SF-539
[19] = system: A549

SMILES	GI50 [1]	GI50 [2]	GI50 [3]	GI50 [4]	GI50 [5]	GI50 [6]	GI50 [7]	GI50 [8]	GI50 [9] [µM]	GI50 [10]	GI50 [11]	GI50 [12]	GI50 [13]	GI50 [14]	GI50 [15]	GI50 [16]	GI50 [17]	GI50 [18]	GI50 [19]
CC(C)(C)c1cc(C(=O)/C=C/c2ccc3c(c2)OCO3)cc(C(C)(C)C)c1O	4.2 µM (inactive)	4.53 µM (inactive)	8.11 µM (inactive)	15.8 µM (inactive)	5.06 µM (inactive)	3.2 µM (inactive)	5.73 µM (inactive)	6.04 µM (inactive)	4.83	18.6 µM (inactive)	2.95 µM (inactive)	6.38 µM (inactive)	4.29 µM (inactive)	5.7 µM (inactive)	2.26 µM (inactive)	6.62 µM (inactive)	10.1 µM (inactive)	6.44 µM (inactive)	9.64 µM (inactive)
CCOC(=O)NC(Nc1ccc(C)cc1)(C(F)(F)F)C(F)(F)F	> 100 µM (inactive)	> 100 µM (inactive)	> 100 µM (inactive)	> 100 µM (inactive)	> 100 µM (inactive)	> 100 µM (inactive)	> 100 µM (inactive)	> 100 µM (inactive)	> 100	> 100 µM (inactive)	–	> 100 µM (inactive)	> 100 µM (inactive)	> 100 µM (inactive)	> 100 µM (inactive)	> 100 µM (inactive)	> 100 µM (inactive)	> 100 µM (inactive)	> 100 µM (inactive)
COc1ccc(-c2cc(=O)c3c(O)c(OC)c(OC)c(OC)c3o2)cc1 [GARDENIN B]	5.52 µM (inactive)	6.47 µM (inactive)	16.5 µM (inactive)	8.38 µM (inactive)	> 100 µM (inactive)	10.2 µM (inactive)	4.17 µM (inactive)	45.3 µM (inactive)	2.37	> 100 µM (inactive)	> 100 µM (inactive)	> 100 µM (inactive)	> 100 µM (inactive)	20.7 µM (inactive)	0.431 µM (active)	21.5 µM (inactive)	> 100 µM (inactive)	> 61.7 µM (inactive)	10.1 µM (inactive)
Cn1c(N2CCCC2)c(C=O)c(=O)n(C)c1=O	> 100 µM (inactive)	> 100 µM (inactive)	> 100 µM (inactive)	> 100 µM (inactive)	> 100 µM (inactive)	14.1 µM (inactive)	> 100 µM (inactive)	> 100 µM (inactive)	> 100	> 100 µM (inactive)	> 100 µM (inactive)	> 100 µM (inactive)	> 100 µM (inactive)	> 100 µM (inactive)	> 100 µM (inactive)	> 100 µM (inactive)	> 100 µM (inactive)	> 100 µM (inactive)	> 100 µM (inactive)
O=Cc1ccc(-c2nccc3c2[nH]c2ccccc23)o1	82.2 µM (inactive)	> 75.7 µM (inactive)	91.6 µM (inactive)	97.7 µM (inactive)	> 100 µM (inactive)	> 100 µM (inactive)	> 88.1 µM (inactive)	26.9 µM (inactive)	> 100	> 100 µM (inactive)	24.5 µM (inactive)	> 100 µM (inactive)	> 100 µM (inactive)	20.4 µM (inactive)	> 100 µM (inactive)	> 89.9 µM (inactive)	> 100 µM (inactive)	> 100 µM (inactive)	73.1 µM (inactive)
CC(=O)OC/C=C(\C)CCC(Br)C(C)(C)Br (stereo unspecified)	> 10 µM (inactive)	> 10 µM (inactive)	> 10 µM (inactive)	> 10 µM (inactive)	> 10 µM (inactive)	> 10 µM (inactive)	> 10 µM (inactive)	> 10 µM (inactive)	> 10	> 10 µM (inactive)	> 10 µM (inactive)	0.001 µM (active)	> 10 µM (inactive)	> 10 µM (inactive)	> 10 µM (inactive)	> 10 µM (inactive)	> 10 µM (inactive)	> 10 µM (inactive)	> 10 µM (inactive)
Clc1cccc(/C=N/C23CC4CC(CC(C4)C2)C3)c1Cl	> 10 µM (inactive)	> 10 µM (inactive)	> 10 µM (inactive)	> 10 µM (inactive)	> 10 µM (inactive)	5.36 µM (inactive)	> 10 µM (inactive)	> 10 µM (inactive)	> 10	> 10 µM (inactive)	> 10 µM (inactive)	–	> 10 µM (inactive)	> 10 µM (inactive)	> 10 µM (inactive)	> 10 µM (inactive)	> 10 µM (inactive)	> 10 µM (inactive)	> 10 µM (inactive)
CSCCCNC(=O)c1csc(-c2csc(CCNC(=O)CNC(=O)CNC(=O)CNC(=O)OC(C)(C)C)n2)n1	> 100 µM (inactive)	> 100 µM (inactive)	> 100 µM (inactive)	> 100 µM (inactive)	> 100 µM (inactive)	> 100 µM (inactive)	> 100 µM (inactive)	> 100 µM (inactive)	> 100	> 100 µM (inactive)	> 100 µM (inactive)	> 100 µM (inactive)	> 100 µM (inactive)	> 100 µM (inactive)	> 100 µM (inactive)	> 100 µM (inactive)	> 100 µM (inactive)	> 100 µM (inactive)	> 100 µM (inactive)
Cc1ccccc1S(=O)(=O)OC1NS(=O)(=O)c2ccccc21 (stereo unspecified)	> 100 µM (inactive)	> 100 µM (inactive)	> 100 µM (inactive)	> 100 µM (inactive)	> 100 µM (inactive)	> 100 µM (inactive)	> 100 µM (inactive)	> 100 µM (inactive)	> 100	> 100 µM (inactive)	> 100 µM (inactive)	> 100 µM (inactive)	> 100 µM (inactive)	> 100 µM (inactive)	> 100 µM (inactive)	> 100 µM (inactive)	> 100 µM (inactive)	> 100 µM (inactive)	> 100 µM (inactive)
Cc1c2c(n(C)c1C)C(=O)C1C(C2=O)C2(C)c3ccccc3C1(C)c1ccccc12 (stereo unspecified)	> 100 µM (inactive)	> 100 µM (inactive)	> 100 µM (inactive)	> 100 µM (inactive)	> 100 µM (inactive)	> 100 µM (inactive)	> 100 µM (inactive)	> 100 µM (inactive)	> 100	> 100 µM (inactive)	> 100 µM (inactive)	> 100 µM (inactive)	> 100 µM (inactive)	> 100 µM (inactive)	> 100 µM (inactive)	> 100 µM (inactive)	–	> 100 µM (inactive)	–
Brc1ccc2c(-c3nc(-c4c[nH]c5ccc(Br)cc45)cs3)c[nH]c2c1	4.51 µM (inactive)	10.2 µM (inactive)	3.92 µM (inactive)	15.4 µM (inactive)	5.77 µM (inactive)	14.5 µM (inactive)	1.86 µM (inactive)	2.87 µM (inactive)	3.39	11.3 µM (inactive)	8.75 µM (inactive)	4.1 µM (inactive)	4.56 µM (inactive)	3.92 µM (inactive)	5.26 µM (inactive)	2.24 µM (inactive)	4.63 µM (inactive)	5.06 µM (inactive)	4.14 µM (inactive)
CCOC1(OCC)N=C(N)C2(C#N)C3(C(=O)N(C(C)C)N=C3C)C12C#N (stereo unspecified)	–	44.3 µM (inactive)	> 100 µM (inactive)	> 100 µM (inactive)	> 100 µM (inactive)	> 100 µM (inactive)	> 100 µM (inactive)	> 100 µM (inactive)	> 100	> 100 µM (inactive)	> 100 µM (inactive)	> 100 µM (inactive)	> 100 µM (inactive)	> 100 µM (inactive)	> 100 µM (inactive)	> 100 µM (inactive)	> 100 µM (inactive)	> 100 µM (inactive)	> 100 µM (inactive)
CN(C)CCn1c(=O)c2ccc(NCCNCCO)c3c(=O)c4ccccc4n(c1=O)c23	0.0716 µM (active)	0.288 µM (active)	0.14 µM (active)	0.164 µM (active)	0.0217 µM (active)	0.0445 µM (active)	0.0853 µM (active)	0.0467 µM (active)	0.279	0.815 µM (active)	0.368 µM (active)	0.126 µM (active)	1.72 µM (inactive)	0.0469 µM (active)	0.228 µM (active)	0.0149 µM (active)	0.0206 µM (active)	0.0428 µM (active)	< 0.0121 µM (active)
Cc1ccc(-c2ccc3c(c2)Sc2ccccc2O3)n1C	0.356 µM (active)	0.373 µM (active)	0.371 µM (active)	0.536 µM (active)	1.13 µM (inactive)	0.238 µM (active)	0.213 µM (active)	0.0593 µM (active)	0.143	–	19.5 µM (inactive)	0.67 µM (active)	0.206 µM (active)	0.165 µM (active)	0.0263 µM (active)	0.553 µM (active)	0.306 µM (active)	0.308 µM (active)	0.675 µM (active)
C=C(C)[C@H]1C=C[C@@H](OC(=O)c2cccnc2)[C@@]23CO[C@@](C)([C@H](OC(=O)c4cccnc4)[C@@]4(OC(C)=O)C[C@H](C)[C@H](OCCC)[C@@H]4[C@H]2OC(C)=O)[C@H]13	> 15 µM (inactive)	> 15 µM (inactive)	12.7 µM (inactive)	> 15 µM (inactive)	> 15 µM (inactive)	3.82 µM (inactive)	–	> 15 µM (inactive)	> 15	–	> 15 µM (inactive)	> 15 µM (inactive)	> 15 µM (inactive)	13.4 µM (inactive)	9.68 µM (inactive)	> 15 µM (inactive)	> 15 µM (inactive)	> 15 µM (inactive)	–
